# In US20050112058A1, “Auger effect-based cancer therapy method” (Ben-Gurion University of the Negev, priority 2002, published 2005):
# Read-outs that look alike come from different tables or passages of the source.
# Key:
# DNA = conditions: for Fluorescent Intensity: 7.5 μg DNA, 7.5 μl ethidium bromide buffer
# Experimental: A stock solution of 1.26 μM ethidium bromide containing 2 mM HEPES, 8 mM sodium chloride and 0.05 mM EDTA (pH=7) was prepared.
# B16 melanoma = conditions: 40 mg/kg intraperitoneal, samples up to 72 hours after injection, compared with TCA-insoluble fraction
# Experimental: Tissue samples were taken up to 72 hours after the injection. The samples were treated with trichloroacetic acid (TCA), such that the TCA-insoluble fraction contained the DNA and high molecular weight proteins, and the TCA-soluble fraction contained the cytoplasmic and membrane components of the cells. Inductively-coupled plasma mass spectrometry (ICP-MS) was used to measure the concentration of indium ions in the TCA-insoluble and TCA-soluble fractions.
# [1] = system: KHJJ murine mammary carcinoma tumors; test: Auger electron therapy: tumor volume after 103Pd brachytherapy seed implantation with or without PtTMPyP(4); type: in vivo, BALB/C mice; conditions: for Tumor volume, mm^3 ± standard error, Auger Electron Therapy: 103 Pd seeds in combination with PtTMPyP(4): with 103Pd seeds
# Experimental: General description. On day 0, after measurements of the length, width and height of the tumors, palladium-103 brachytherapy seeds were implanted into 12 KHJJ murine mammary carcinoma tumors borne on the thighs of 12 BALB/C mice. Twenty-four hours after seed implantation, 40 mg/kg, platinum (II)-tetrakis(N-methyl-4-pyridyl) porphyrin [PtTMPyP(4)], in the form of its chloride salt, was administered i.p. as a single bolus injection of 200 μl to the six mice undergoing AET. Tumor volume measurements were obtained two to three times weekly. Drug was also administered on days 5 (30 mg/kg), and 19 (20 mg/kg) following seed implantation.
# Tumor. Prior to the experiment, tumors were excised from the donor mouse in a sterile environment, and fragmented into 1-2 mm sections in a Petri dish. After anesthetizing each mouse with ketamine/xylazine (10:1), a small slit was prepared through the skin on the thigh, ˜5 mm above and lateral to the distal femur of the right knee. To assure subcutaneous implantation of the tumor fragment, a magnifying glass with a fluorescent light was used to observe the sheen on the fascia surrounding the three sides of the ‘pocket’ produced by the slit. An 18 gauge trochar, into whose bevel a tumor fragment had been inserted, was positioned into the ‘pocket’. A stylette was used to push the fragment into the ‘pocket’. Tumors were implanted either 12 or 15 days prior to the experiment. Upon verification of tumor growth, those tumors of adequate size to accommodate the seed implant, were randomized into treatment groups (AET or radiation only) using a coin flip.
# Measurements of tumor volume. Using a digital caliper, the length, width, and height of the tumors were measured. Being ellipsoid in their growth pattern, tumor volume was determined according to the formula, […].
# Seed implantation. On day 0, after weighing the mice and measuring the length, width and height of the tumors, palladium-103 brachytherapy seeds (˜2.2 mCi in activity; Theragenics) were implanted into the thigh tumors as follows. The anesthetized mouse was positioned on a board whose angle was ˜45°. The tumor bearing leg was inserted through an elastic band, secured through the board. The foot was taped to the board. An 18 gauge trochar with a funnel head that was supported by a brace on a ring stand, was inserted into the center to the tumor. The seed, previously sterilized by dipping in ETOH, rinsing in a sterile PBS solution, and air-dried, was placed in the funnel of the trochar using long-nosed forceps. A stylette was used to insert the seed into the tumor, after which the trochar was withdrawn from the tumor and Neosporin was applied to the wound.
# Drug delivery. The day after seed implantation (day 1), 40 mg/kg of PtTMPyP(4), in the form of its chloride salt, was administered intraperitoneally to the mice in the AET treatment group. On day 5, […] of PtTMPyP(4) was injected i.p., and on day 19, a dosage of 20 mg/kg was injected i.p.
compound,measurement,setting,value
C[n+]1ccc(-c2c3nc(c(-c4cc[n+](C)cc4)c4ccc([n-]4)c(-c4cc[n+](C)cc4)c4nc(c(-c5cc[n+](C)cc5)c5ccc2[n-]5)C=C4)C=C3)cc1.[In+3] [In^3+-tetra(N-methyl-4-pyridyl)-porphyrin],Fluorescent Intensity,DNA; 0.25 μg complex,85%
same,Fluorescent Intensity,DNA; 0.50 μg complex,73%
same,Fluorescent Intensity,DNA; 0.75 μg complex,63%
same,Fluorescent Intensity,DNA; 1.00 μg complex,54%
same,Fluorescent Intensity,DNA; 1.25 μg complex,47%
same,Fluorescent Intensity,DNA; 1.50 μg complex,41%
same,Fluorescent Intensity,DNA; 1.75 μg complex,35%
same,Fluorescent Intensity,DNA; 2.00 μg complex,30%
same,Fluorescent Intensity,DNA; 2.25 μg complex,26%
same,Fluorescent Intensity,DNA; 2.50 μg complex,22%
same,Fluorescent Intensity,DNA; 2.75 μg complex,19%
same,Fluorescent Intensity,DNA; 3.00 μg complex,16%
same,Fluorescent Intensity,DNA; 3.25 μg complex,13.4%
same,Fluorescent Intensity,DNA; 3.50 μg complex,12%
same,Fluorescent Intensity,DNA; 3.75 μg complex,10%
same,Fluorescent Intensity,DNA; 4.00 μg complex,9%
same,binding to DNA by displacement of ethidium bromide (in words),"DNA; fluorescence decreases with increasing complex concentration, FIG. 2",displaces the ethidium bromide and becomes bound to the DNA
same,number of indium ions per cell in the TCA-soluble fraction (cytoplasmic and membrane components),B16 melanoma,lesser amount
"CN1C=CC(c2c3nc(c(C4=CCN(C)C=C4)c4ccc([nH]4)c(C4=CCN(C)C=C4)c4nc(c(C5=CCN(C)C=C5)c5ccc2[nH]5)C=C4)C=C3)=CC1.[Pt+2] [PtTMPyP(4), platinum (II)-tetrakis(N-methyl-4-pyridyl) porphyrin]",effect on tumor growth compared with radiation alone or no treatment (in words),"[1]; AET group, FIG. 4, mean tumor volume",significant delay in tumor control
same,"Tumor volume, mm^3 ± standard error, Auger Electron Therapy: 103 Pd seeds in combination with PtTMPyP(4)",[1]; day 0 post seed implantation (before first drug dose),117.5 ± 18.6 mm^3
same,"Tumor volume, mm^3 ± standard error, Auger Electron Therapy: 103 Pd seeds in combination with PtTMPyP(4)","[1]; day 3 post seed implantation, i.p. 40 mg/kg day 1, 30 day 5, 20 day 19",112.8 ± 15.3 mm^3
same,"Tumor volume, mm^3 ± standard error, Auger Electron Therapy: 103 Pd seeds in combination with PtTMPyP(4)","[1]; day 5 post seed implantation, i.p. 40 mg/kg day 1, 30 day 5, 20 day 19",110.6 ± 25.7 mm^3
same,"Tumor volume, mm^3 ± standard error, Auger Electron Therapy: 103 Pd seeds in combination with PtTMPyP(4)","[1]; day 7 post seed implantation, i.p. 40 mg/kg day 1, 30 day 5, 20 day 19",121.5 ± 29.4 mm^3
same,"Tumor volume, mm^3 ± standard error, Auger Electron Therapy: 103 Pd seeds in combination with PtTMPyP(4)","[1]; day 9 post seed implantation, i.p. 40 mg/kg day 1, 30 day 5, 20 day 19",123.1 ± 26.9 mm^3
same,"Tumor volume, mm^3 ± standard error, Auger Electron Therapy: 103 Pd seeds in combination with PtTMPyP(4)","[1]; day 12 post seed implantation, i.p. 40 mg/kg day 1, 30 day 5, 20 day 19",150.7 ± 31.5 mm^3
same,"Tumor volume, mm^3 ± standard error, Auger Electron Therapy: 103 Pd seeds in combination with PtTMPyP(4)","[1]; day 15 post seed implantation, i.p. 40 mg/kg day 1, 30 day 5, 20 day 19",116.5 ± 44.9 mm^3
same,"Tumor volume, mm^3 ± standard error, Auger Electron Therapy: 103 Pd seeds in combination with PtTMPyP(4)","[1]; day 19 post seed implantation, i.p. 40 mg/kg day 1, 30 day 5, 20 day 19",175.6 ± 69.2 mm^3
same,"Tumor volume, mm^3 ± standard error, Auger Electron Therapy: 103 Pd seeds in combination with PtTMPyP(4)","[1]; day 21 post seed implantation, i.p. 40 mg/kg day 1, 30 day 5, 20 day 19",200.1 ± 81.9 mm^3
same,"Tumor volume, mm^3 ± standard error, Auger Electron Therapy: 103 Pd seeds in combination with PtTMPyP(4)","[1]; day 23 post seed implantation, i.p. 40 mg/kg day 1, 30 day 5, 20 day 19",232.6 ± 91.2 mm^3
same,"Tumor volume, mm^3 ± standard error, Auger Electron Therapy: 103 Pd seeds in combination with PtTMPyP(4)","[1]; day 27 post seed implantation, i.p. 40 mg/kg day 1, 30 day 5, 20 day 19",280.2 ± 90.6 mm^3
same,factor between mean tumor volume with seeds only and with seeds plus drug,"[1]; day 32, 103Pd seeds alone versus 103Pd seeds plus PtTMPyP(4)",5
same,"Tumor volume, mm^3 ± standard error, Auger Electron Therapy: 103 Pd seeds in combination with PtTMPyP(4)","[1]; day 32 post seed implantation, i.p. 40 mg/kg day 1, 30 day 5, 20 day 19, 40 mg/kg",356.2 ± 133.9 mm^3
